Results: paper PMC12209990, “Effect of Cytochrome P450 3A Inhibition and Induction by Itraconazole and Rifampin on Tazemetostat Pharmacokinetics in Patients With Advanced Malignancies” (Clinical Pharmacology in Drug Development, 2025)
Marks after values point to notes of the source that are not given here.

Assays:
[1] = Safety (TEAEs) Part 2: tazemetostat coadministered with rifampin
Method: Part 2 of the study evaluated the DDI between tazemetostat and rifampin. On the mornings of Days 1 and 15, patients received a single dose of tazemetostat 800 mg orally. On Days 3‐14, patients received tazemetostat 800 mg twice daily. On Days 17‐23, patients received tazemetostat 800 mg twice daily, coadministered in the morning with a single dose of rifampin 600 mg orally. On the morning of Day 24, patients received a single dose of tazemetostat 800 mg coadministered with rifampin 600 mg. On the morning of Day 25, patients received rifampin 600 mg (Figure 1B). Throughout Part 2, administration of rifampin occurred 1 hour before a meal.
Safety was assessed by monitoring treatment‐emergent adverse events (TEAEs) and vital signs, electrocardiography, and clinical laboratory tests. TEAEs were defined as adverse events that started or worsened in severity on or after the date of the first dose of the study drug through 30 days after the last dose. Treatment‐related TEAEs were summarized by each study drug for both study parts. Adverse events were coded using the Medical Dictionary for Regulatory Activities Version 23.1 and graded per Common Terminology Criteria for Adverse Events Version 5.0.

[2] = tested on: CYP3A; design: method as in PMID 29473431, PMID 38520556, PMID 33492746; conditions: in vitro; cited from earlier work
[3] = Phase I DDI study Part 1: tazemetostat plasma PK alone and with itraconazole (noncompartmental analysis); type: in vivo, human; conditions: Part 1; for RacAUC (AUC0‐12h accumulation ratio), geoLSM (90% CI) / RacCmax (Cmax accumulation ratio), geoLSM (90% CI): tazemetostat 400 mg alone, Day 15 versus Day 1
From the text: This was a Phase I, multicenter, open‐label, 2‐part study encompassing a fixed‐sequence design that aimed to characterize the PK of tazemetostat when administered as single and twice‐daily oral doses alone or in combination with either itraconazole (Part 1) or rifampin (Part 2). Secondary objectives were to evaluate the safety profile of tazemetostat when coadministered with either itraconazole (Part 1) or rifampin (Part 2).
Part 1 of the study evaluated the DDI between tazemetostat and itraconazole. On the mornings of Days 1 and 15, patients received a single dose of tazemetostat 400 mg orally. On Days 3‐14, patients received tazemetostat 400 mg twice daily (morning and evening). On Days 18‐20, patients received itraconazole 200 mg orally once daily in the morning. On Days 21‐35, tazemetostat 400 mg twice daily was coadministered in the morning with a single dose of itraconazole 200 mg. On Day 36, patients received a single dose of tazemetostat 400 mg coadministered in the morning with a single dose of itraconazole 200 mg. On Days 37 and 38, patients received a single dose of itraconazole 200 mg (Figure 1A). Throughout Part 1, administration of itraconazole occurred 1 hour after a meal.
In Part 1, plasma concentrations of tazemetostat following tazemetostat dosing on Days 1, 15, 21, and 36 were quantified for PK analyses before dosing (0 hour), and at 0.5, 1, 1.5, 2, 4, 6, 8, 12, 24 (Days 21‐22), 36, 48 (Days 1‐3), and up to 72 hours after dosing (Days 15‐18 and Days 36‐39).
Plasma concentrations of tazemetostat, over the ranges of 1.00‐2000 ng/mL, were quantified by a fully validated liquid chromatography with tandem mass spectrometric detection analytical method. Samples that had no detectable peak or had the calculated concentration <1.00 ng/mL were reported as below the lower limit of quantification. Tazemetostat analysis consisted of protein precipitation extraction and separation using mobile phases of 100 mM ammonium formate/water (1:9 v/v) (mobile phase A) and 100 mM ammonium formate/acetonitrile (1:9 v/v) (mobile phase B). Detection was achieved using an API‐5500 mass spectrometer (AB Sciex) using electrospray ionization (positive‐ion mode) in the multiple reaction monitoring mode. The multiple reaction monitoring mode m/z transitions monitored were […] for tazemetostat and the dwell time was set at 300 milliseconds.
Plasma concentration‐time data for tazemetostat were analyzed by noncompartmental analysis using the validated software program Phoenix WinNonlin Professional Version 8.3 (Certara Inc., Mountain View, CA).

[4] = single dose with itraconazole vs alone, Day 21 versus Day 1
[5] = single dose with itraconazole vs alone, Day 21 versus Day 1, listed as tazemetostat
[6] = steady state with itraconazole vs alone, Day 36 versus Day 15
[7] = steady state with itraconazole vs alone, Day 36 versus Day 15, listed as tazemetostat

SMILES: CCN(c1cc(-c2ccc(CN3CCOCC3)cc2)cc(C(=O)NCc2c(C)cc(C)[nH]c2=O)c1C)C1CCOCC1 [Tazemetostat]
- Deaths resulting from TEAEs ([1]; Part 2): no deaths
- Any TEAE Grade 3 or 4, patients ([1]; human, in vivo): 13 (61.9) n (%)
- Any TEAE leading to dose reduction, patients ([1]; human, in vivo): 2 (9.5) n (%)
- Any TEAE leading to study drug discontinuation, patients ([1]; human, in vivo): 0 n (%)
- Any TEAE leading to study drug interruption, patients ([1]; human, in vivo): 7 (33.3) n (%)
- Any TEAE, patients ([1]; human, in vivo): 21 (100.0) n (%)
- Any TESAE, patients ([1]; human, in vivo): 9 (42.9) n (%)
- Any treatment-related TEAE Grade 3 or 4, patients ([1]; human, in vivo): 7 (33.3) n (%)
- Any treatment-related TESAE, patients ([1]; human, in vivo): 1 (4.8) n (%)
- Grade 3/4 TEAE decreased lymphocyte count ([1]; human, in vivo): 9.5%
- TEAE anemia, frequency ([1]; human, in vivo): 23.8%
- TEAE constipation, frequency ([1]; human, in vivo): 23.8%
- TEAE cough, frequency ([1]; human, in vivo): 28.6%
- TEAE diarrhea, frequency ([1]; human, in vivo): 33.3%
- TEAE fatigue, frequency ([1]; human, in vivo): 42.9%
- TEAE nausea, frequency ([1]; human, in vivo): 23.8%
- Tazemetostat‐related Grade 3/4 TEAE acute kidney injury ([1]; human, in vivo): 4.8%
- Tazemetostat‐related Grade 3/4 TEAE alanine aminotransferase increased ([1]; human, in vivo): 4.8%
- Tazemetostat‐related Grade 3/4 TEAE anemia ([1]; human, in vivo): 9.5%
- Tazemetostat‐related Grade 3/4 TEAE aspartate aminotransferase ([1]; human, in vivo): 4.8%
- Tazemetostat‐related Grade 3/4 TEAE diarrhea ([1]; human, in vivo): 4.8%
- Tazemetostat‐related Grade 3/4 TEAE syncope ([1]; human, in vivo): 4.8%
- Treatment-related TEAE Grade 3 or 4, related to the named study drug, patients ([1]; human, in vivo): 7 (33.3) n (%)
- Treatment-related TEAEs, related to the named study drug, patients ([1]; human, in vivo): 16 (76.2) n (%)
- Treatment-related TESAE, related to the named study drug, patients ([1]; human, in vivo): 1 (4.8) n (%)
- Any TEAE, patients ([1]; in vivo): all patients
- metabolism by CYP3A [2]: mainly metabolized by cytochrome P450 (CYP), family 3, subfamily A (CYP3A)
- AUC0‐12h ratio, geoLSM (90% CI) [3, 4]: 3.12 (2.44‐3.99) ^b
- Cmax ratio, geoLSM (90% CI) [3, 4]: 2.00 (1.60‐2.48) ^b
- AUC0‐12h ratio, geoLSM (90% CI) [3, 5]: 3.12
- Cmax ratio, geoLSM (90% CI) [3, 5]: 2.00
- AUC0‐12h ratio, geoLSM (90% CI) [3, 6]: 2.47 (2.02‐3.02) ^c
- Cmax ratio, geoLSM (90% CI) [3, 6]: 1.86 (1.49‐2.31) ^c
- AUC0‐12h ratio, geoLSM (90% CI) [3, 7]: 2.47
- Cmax ratio, geoLSM (90% CI) [3, 7]: 1.86
- RacAUC (AUC0‐12h accumulation ratio), geoLSM (90% CI) [3]: 0.842 (0.726‐0.976) ^e
- RacCmax (Cmax accumulation ratio), geoLSM (90% CI) [3]: 0.771 (0.662‐0.897) ^e
- RacAUC (AUC0‐12h accumulation ratio), geoLSM (90% CI) ([3]; listed as tazemetostat): 0.842
- RacCmax (Cmax accumulation ratio), geoLSM (90% CI) ([3]; listed as tazemetostat): 0.771
- AUC0‐12 h, GeoMean (CV%) ([3]; tazemetostat 400 mg multiple dosing with itraconazole 200 mg once daily, Day 36, plasma): 4530 (64.5) ng•h/mL
